We go through two compounds from patent US9321722B2, “Bis-indolic derivatives, their uses in particular as antibacterials” (UNIVERSITE JOSEPH FOURIER, priority 2011, dated 2016).

Values after ≈ are worked out from the molar mass of the structure shown.

What all share (experiment): MIC, Staphylococcus panel (Table I-2)
Format in all cases: cell-based
What all share (details): 18 h, 4% DMSO

For experiment [1], the system named is Staphylococcus hominis (CHUG-Shom8). As for the experimental part: (§1) We used the previously described protocol, with subtle modifications. The microdilution method recommended by the Clinical and Laboratory Standard Institute [M07-A9, Vol. 32, N^o 2] was used. The activity of bis-indolic compounds was tested against 35 bacterial strains belonging to 12 different Staphylococcus species.
(§2) Bacterial inocula were prepared in Mueller Hinton broth (MH2, BioMerieux, Marcy L'Etoile, France). They were dispensed in 96 well microtiter plates (5×10^5 CFU/ml of final inoculum, 192 μL per well). Indolic compounds diluted in pure DMSO (8 μL per well, concentrated 25 times) were added to the wells as to obtain two-fold serial concentrations (0.5-32 mg/L of final concentrations). The final concentration of DMSO was 4% in each well.
(§3) To avoid cross-contaminations in microtiter plates, one row was left blank between each strain tested. Microplates were incubated for 18 h at 37° C. in ambient air or at 37° C. in 5% CO2 enriched atmosphere for fastidious species. Then MICs were read visually and, in case of visual reading difficulties, confirmed using a spectrophotometer at a wavelength of 630 nm (BioTek® EL808 Absorbance Microplate Reader). MICs corresponded to the minimum bis-indolic compound concentration that allowed complete visual growth inhibition of bacteria. Drug-free cultures served as growth controls.
(§4) Coagulase-negative Staphylococcus strains included three reference strains purchased from CRBIP: a methicillin-susceptible S. epidermidis strain (ATCC 12228), a methicillin-resistant S. epidermidis strain (ATCC 49461), and a methicillin-susceptible S. sciuri strain (ATCC 29061). We also used clinical strains belonging to the following coagulase-negative Staphylococcus species: S. auricularis (two strains), S. warneri (five strains), S. capitis (five strains), S. haemolyticus (four strains), S. hominis (seven strains), S. cohnii (two strains), and S. saprophyticus, S. caprae and S. simulans (one strain each). Identification of the clinical strains was obtained using VITEK® 2 System (Biomérieux).

In experiment [2] the test system is Staphylococcus auricularis (CHUG-Saur3). The protocol:
as §1, §2, §3, §4

Experiment [3] concerns Staphylococcus warneri (CHUG-Swar6). As for the experimental part:
as §1, §2, §3, §4

The subject of experiment [4] is Staphylococcus hominis (CHUG-Shom7). As for the experimental part: as §1, §2, §3, §4
In experiment [5] the test system is Staphylococcus hominis (CHUG-Shom6). As for the experimental part:
as §1, §2, §3, §4

For orientation: MIC means the lowest concentration that inhibits growth of the organism. A low value points to greater potency.

As to `CC(NC(=O)C(=O)c1c[nH]c2ccc(Br)cc12)c1c[nH]c2ccc(Br)cc12` (stereo not shown) [Compound 5, 2-(5-Bromo-1H-indol-3-yl)-N-(1-(5-bromo-1H-indol-3-yl)ethyl)-2-oxoacetamide], the MIC was found to be 2 µg/mL (≈ 4.09 µM) in experiment [1]; 1 µg/mL (≈ 2.04 µM) in experiment [2]; 2 µg/mL (≈ 4.09 µM) in experiment [3]; 2 µg/mL (≈ 4.09 µM) in experiment [4]; 2 µg/mL (≈ 4.09 µM) in experiment [5].
Regarding `CC(C)(C)OC(=O)NCC(NC(=O)C(=O)c1c[nH]c2ccc(Br)cc12)c1c[nH]c2ccc(Br)cc12` (stereo not shown) [Compound 4, tert-Butyl(2-(5-bromo-1H-indol-3-yl)-2-(2-(5-bromo-1H-indol-3-yl)-2-oxoacetamido)ethyl) carbamate], the MIC in experiment [1], in experiment [2], in experiment [3], in experiment [4] and in experiment [5] was 1 µg/mL (≈ 1.65 µM) in each case.
